In the kinase profiling compilation of Christmann-Franck et al. (2016):

How the values were obtained:
Assay in all cases: KINOMEscan competition binding
Conditions in all cases: compound 10.0 µM
[1] = test system: ABL1 (human), P00519 [E255K]
[2] = test system: ABL1 (human), P00519 [M351T]
[3] = test system: EGFR (human), P00533 [746-750 del]
[4] = test system: EGFR (human), P00533 [G719S]
[5] = test system: EGFR (human), P00533 [L861Q]
[6] = test system: EGFR (human), P00533 [P753S; 747-752 del]
[7] = test system: EIF2AK4 KD2 (human), Q9P2K8 [S808G]
[8] = test system: FLT3 (human), P36888 [ITD]
[9] = test system: FLT3 (human), P36888 [K663Q]
[10] = test system: FLT3 (human), P36888 [N841I]
[11] = test system: KIT (human), P10721 [D816V]
[12] = test system: KIT (human), P10721 [V559D/T670I]
[13] = test system: KIT (human), P10721 [V559D]
[14] = test system: PIK3CA (human), P42336 [C420R]
[15] = test system: PIK3CA (human), P42336 [E545A]
[16] = test system: PIK3CA (human), P42336 [E545K]
[17] = test system: PIK3CA (human), P42336 [H1047Y]
[18] = test system: PIK3CA (human), P42336 [I800L]
[19] = test system: PIK3CA (human), P42336 [Q546K]
PIK3CA (human), P42336 [Q546K], sequence (P42336 whole entry Q546K, looked up): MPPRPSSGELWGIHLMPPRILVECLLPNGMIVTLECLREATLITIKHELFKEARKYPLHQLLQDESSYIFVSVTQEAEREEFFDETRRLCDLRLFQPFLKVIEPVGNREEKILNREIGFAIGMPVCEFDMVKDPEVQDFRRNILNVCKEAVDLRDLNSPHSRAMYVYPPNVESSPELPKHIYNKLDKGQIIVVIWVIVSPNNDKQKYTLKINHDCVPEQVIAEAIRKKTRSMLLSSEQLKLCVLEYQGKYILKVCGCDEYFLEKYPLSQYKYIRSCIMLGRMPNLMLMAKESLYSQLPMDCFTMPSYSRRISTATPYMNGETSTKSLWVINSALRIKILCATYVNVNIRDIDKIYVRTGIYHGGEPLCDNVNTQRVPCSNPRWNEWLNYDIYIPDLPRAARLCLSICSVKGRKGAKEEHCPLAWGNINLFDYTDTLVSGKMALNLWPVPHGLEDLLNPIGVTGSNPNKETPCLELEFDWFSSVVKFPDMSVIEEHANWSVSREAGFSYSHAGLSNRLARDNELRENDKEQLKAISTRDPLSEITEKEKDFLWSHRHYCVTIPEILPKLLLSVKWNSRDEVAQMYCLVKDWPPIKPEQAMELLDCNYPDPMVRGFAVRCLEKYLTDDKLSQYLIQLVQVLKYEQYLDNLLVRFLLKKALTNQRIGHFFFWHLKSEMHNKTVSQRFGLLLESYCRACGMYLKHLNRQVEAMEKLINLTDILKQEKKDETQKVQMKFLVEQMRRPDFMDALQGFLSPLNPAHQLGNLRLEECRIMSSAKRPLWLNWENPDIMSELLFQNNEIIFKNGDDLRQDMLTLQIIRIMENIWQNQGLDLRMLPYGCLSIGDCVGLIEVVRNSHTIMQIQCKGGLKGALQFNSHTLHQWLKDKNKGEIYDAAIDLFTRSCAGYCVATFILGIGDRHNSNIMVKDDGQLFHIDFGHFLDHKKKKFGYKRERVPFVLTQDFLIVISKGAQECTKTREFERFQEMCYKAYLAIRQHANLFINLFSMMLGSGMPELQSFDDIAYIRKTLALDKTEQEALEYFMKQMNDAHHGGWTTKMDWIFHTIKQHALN

KIT (human), P10721 [V559D/T670I], sequence (P10721 whole entry V559D/T670I, looked up): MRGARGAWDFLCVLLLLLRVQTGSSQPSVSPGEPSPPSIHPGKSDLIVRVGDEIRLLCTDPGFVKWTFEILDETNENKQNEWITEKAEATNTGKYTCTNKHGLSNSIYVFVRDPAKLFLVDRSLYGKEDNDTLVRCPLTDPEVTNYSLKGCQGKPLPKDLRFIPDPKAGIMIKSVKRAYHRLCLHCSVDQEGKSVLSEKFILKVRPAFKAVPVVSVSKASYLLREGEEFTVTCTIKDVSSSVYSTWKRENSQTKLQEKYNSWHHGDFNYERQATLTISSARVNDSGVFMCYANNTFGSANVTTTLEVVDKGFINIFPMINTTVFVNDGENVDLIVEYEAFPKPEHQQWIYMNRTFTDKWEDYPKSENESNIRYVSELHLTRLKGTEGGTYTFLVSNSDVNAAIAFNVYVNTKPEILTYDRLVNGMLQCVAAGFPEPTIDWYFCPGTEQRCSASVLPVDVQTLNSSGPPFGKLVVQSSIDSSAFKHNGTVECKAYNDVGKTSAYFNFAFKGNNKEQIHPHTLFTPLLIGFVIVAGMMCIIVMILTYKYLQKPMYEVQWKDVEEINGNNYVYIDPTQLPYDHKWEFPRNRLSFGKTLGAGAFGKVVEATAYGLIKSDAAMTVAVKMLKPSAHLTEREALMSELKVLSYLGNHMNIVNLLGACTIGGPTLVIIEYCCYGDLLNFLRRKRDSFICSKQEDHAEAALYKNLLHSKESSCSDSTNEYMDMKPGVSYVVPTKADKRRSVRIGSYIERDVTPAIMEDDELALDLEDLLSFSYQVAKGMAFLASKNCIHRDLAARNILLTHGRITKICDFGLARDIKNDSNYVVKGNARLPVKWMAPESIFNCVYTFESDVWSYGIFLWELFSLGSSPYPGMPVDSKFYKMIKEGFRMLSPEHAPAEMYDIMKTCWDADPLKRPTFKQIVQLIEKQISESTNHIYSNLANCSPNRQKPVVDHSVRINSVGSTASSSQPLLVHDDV
PIK3CA (human), P42336 [C420R], sequence (P42336 whole entry C420R, looked up): as the sequence (P42336 whole entry Q546K, looked up) above, with C420R, K546Q counted along it
EIF2AK4 KD2 (human), Q9P2K8 [S808G], sequence (Q9P2K8 whole entry S808G, looked up): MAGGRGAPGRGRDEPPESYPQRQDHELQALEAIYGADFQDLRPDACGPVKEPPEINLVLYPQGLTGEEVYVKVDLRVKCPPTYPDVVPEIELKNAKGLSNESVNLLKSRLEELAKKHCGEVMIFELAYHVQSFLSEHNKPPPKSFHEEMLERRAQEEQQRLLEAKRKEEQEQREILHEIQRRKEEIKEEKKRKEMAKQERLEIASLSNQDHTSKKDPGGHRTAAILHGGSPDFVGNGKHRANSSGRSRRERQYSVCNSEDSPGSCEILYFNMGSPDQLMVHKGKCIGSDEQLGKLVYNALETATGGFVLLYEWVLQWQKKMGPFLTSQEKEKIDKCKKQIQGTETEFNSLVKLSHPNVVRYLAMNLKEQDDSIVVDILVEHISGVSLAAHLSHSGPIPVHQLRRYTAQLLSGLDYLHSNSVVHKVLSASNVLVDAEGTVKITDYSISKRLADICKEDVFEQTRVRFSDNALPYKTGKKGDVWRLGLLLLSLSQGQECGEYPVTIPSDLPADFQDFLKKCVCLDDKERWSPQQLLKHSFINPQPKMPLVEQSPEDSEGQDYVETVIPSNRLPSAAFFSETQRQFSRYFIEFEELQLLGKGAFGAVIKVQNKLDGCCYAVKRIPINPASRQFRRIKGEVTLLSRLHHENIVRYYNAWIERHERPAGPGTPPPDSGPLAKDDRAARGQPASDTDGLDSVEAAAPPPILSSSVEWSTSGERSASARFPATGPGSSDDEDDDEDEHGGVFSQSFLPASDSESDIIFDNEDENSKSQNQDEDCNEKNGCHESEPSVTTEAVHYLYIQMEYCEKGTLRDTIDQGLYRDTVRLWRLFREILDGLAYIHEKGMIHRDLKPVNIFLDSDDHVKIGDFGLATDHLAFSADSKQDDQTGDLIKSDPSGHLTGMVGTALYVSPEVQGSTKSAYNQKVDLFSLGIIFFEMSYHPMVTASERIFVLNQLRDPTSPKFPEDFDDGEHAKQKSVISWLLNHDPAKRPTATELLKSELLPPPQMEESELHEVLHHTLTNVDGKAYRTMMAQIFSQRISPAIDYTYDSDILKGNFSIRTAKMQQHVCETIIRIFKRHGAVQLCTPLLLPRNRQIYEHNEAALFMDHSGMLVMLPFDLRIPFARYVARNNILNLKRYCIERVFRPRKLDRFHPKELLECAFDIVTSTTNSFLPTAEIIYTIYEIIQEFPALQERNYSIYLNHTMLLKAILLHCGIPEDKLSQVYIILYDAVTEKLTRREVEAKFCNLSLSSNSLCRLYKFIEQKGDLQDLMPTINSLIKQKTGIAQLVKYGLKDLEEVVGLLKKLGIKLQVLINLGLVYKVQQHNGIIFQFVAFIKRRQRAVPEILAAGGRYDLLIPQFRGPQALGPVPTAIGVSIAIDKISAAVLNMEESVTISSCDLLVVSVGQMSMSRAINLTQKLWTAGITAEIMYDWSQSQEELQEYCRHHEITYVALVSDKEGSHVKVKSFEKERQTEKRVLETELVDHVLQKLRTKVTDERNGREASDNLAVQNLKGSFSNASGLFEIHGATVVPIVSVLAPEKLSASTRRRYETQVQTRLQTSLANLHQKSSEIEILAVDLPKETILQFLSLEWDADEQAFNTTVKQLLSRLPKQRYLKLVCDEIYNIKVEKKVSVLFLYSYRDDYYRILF
KIT (human), P10721 [V559D], sequence (P10721 whole entry V559D, looked up): as the sequence (P10721 whole entry V559D/T670I, looked up) above, with I670T counted along it
KIT (human), P10721 [D816V], sequence (P10721 whole entry D816V, looked up): as the sequence (P10721 whole entry V559D/T670I, looked up) above, with D559V, I670T, D816V counted along it
PIK3CA (human), P42336 [E545A], sequence (P42336 whole entry E545A, looked up): as the sequence (P42336 whole entry Q546K, looked up) above, with E545A, K546Q counted along it
PIK3CA (human), P42336 [H1047Y], sequence (P42336 whole entry H1047Y, looked up): as the sequence (P42336 whole entry Q546K, looked up) above, with K546Q, H1047Y counted along it
PIK3CA (human), P42336 [I800L], sequence (P42336 whole entry I800L, looked up): as the sequence (P42336 whole entry Q546K, looked up) above, with K546Q, I800L counted along it
PIK3CA (human), P42336 [E545K], sequence (P42336 whole entry E545K, looked up): as the sequence (P42336 whole entry Q546K, looked up) above, with E545K, K546Q counted along it

Row | kinase still bound, per cent of control [1] [%] | kinase still bound, per cent of control [2] [%] | kinase still bound, per cent of control [3] [%] | kinase still bound, per cent of control [4] [%] | kinase still bound, per cent of control [5] [%] | kinase still bound, per cent of control [6] [%] | kinase still bound, per cent of control [7] [%] | kinase still bound, per cent of control [8] [%] | kinase still bound, per cent of control [9] [%] | kinase still bound, per cent of control [10] [%] | kinase still bound, per cent of control [11] [%] | kinase still bound, per cent of control [12] [%] | kinase still bound, per cent of control [13] [%] | kinase still bound, per cent of control [14] [%] | kinase still bound, per cent of control [15] [%] | kinase still bound, per cent of control [16] [%] | kinase still bound, per cent of control [17] [%] | kinase still bound, per cent of control [18] [%] | kinase still bound, per cent of control [19] [%] | SMILES
1 | 81 | 82 | 77 | 52 | 51 | 81 | 83 | 73 | 64 | 37 | 67 | 59 | 69 | 83 | 93 | 93 | 88 | 83 | 100 | C=CC(=O)Nc1ccc(C(=O)c2sc(Nc3ccc(N4CCN(C)CC4)cc3OC)nc2N)cc1
2 | – | – | – | – | – | – | 100 | – | 5.6 | 2 | 32 | 7 | 27 | 71 | 21 | 100 | 18 | – | 17 | C[C@@H](Oc1cc(-c2cnn(C3CCNCC3)c2)cnc1N)c1c(Cl)ccc(F)c1Cl
3 | 80 | 94 | 72 | 86 | 100 | 84 | 95 | 100 | 97 | 73 | 72 | 81 | 100 | 89 | 98 | 100 | 71 | 38 | 91 | COc1cc(C(=O)N2CCC(N3CCN(C)CC3)CC2)ccc1Nc1ncc2c(n1)N(C)c1ccccc1C(=O)N2C
4 | 24 | – | – | – | – | – | 100 | 50 | 17 | 28 | 5.6 | – | 32 | 72 | 54 | 98 | 50 | 99 | 32 | CCc1nc(-c2cccc(C)c2)c(-c2ccnc(NC(=O)c3ccccc3)c2)s1
5 | 1 | 2.2 | 3.8 | 0 | 0 | 0.55 | 0.6 | 0.35 | 0.05 | 0.25 | 0.65 | 0.05 | 0 | 100 | 92 | 100 | 90 | 100 | – | CCN1CCN(Cc2ccc(NC(=O)c3ccc(C)c(/C=C/c4cnc5[nH]ccc5c4OC)c3)cc2C(F)(F)F)CC1
6 | – | – | – | – | – | – | 81 | 87 | 79 | 79 | 89 | 100 | 17 | – | 33 | 100 | 47 | 100 | 38 | COCC(=O)NC/C=C/c1ccc2ncnc(Nc3ccc(Oc4ccc(C)nc4)c(C)c3)c2c1
7 | 44 | – | – | – | 82 | 87 | 0.4 | 20 | 30 | 2.1 | 74 | 61 | 45 | 41 | 10 | 75 | 17 | 6 | 10 | CC(=O)c1c(C)c2cnc(Nc3ccc(N4CCNCC4)cn3)nc2n(C2CCCC2)c1=O
8 | 0 | 0 | 4.2 | 0 | 1.5 | 4.6 | 0.3 | 0 | 0.1 | 0 | – | – | – | 62 | 16 | 100 | 36 | 100 | 83 | NC(=O)Nc1cc(-c2cccc(F)c2)sc1C(=O)N[C@@H]1CCCNC1
9 | 29 | 66 | 100 | 79 | 66 | 100 | 1.2 | 22 | – | 2.2 | 16 | 45 | 16 | 100 | – | 100 | 100 | – | 100 | N#CCNC(=O)c1ccc(-c2ccnc(Nc3ccc(N4CCOCC4)cc3)n2)cc1
10 | – | – | – | – | – | – | – | 2.8 | 0.5 | 0.25 | 3.6 | 0.1 | 0.05 | – | – | – | – | – | – | CNC(=O)c1cc(Oc2ccc(NC(=O)Nc3ccc(Cl)c(C(F)(F)F)c3)cc2)ccn1
11 | 79 | 88 | – | – | – | – | 60 | 92 | 95 | 48 | 50 | 52 | 26 | 86 | 41 | 96 | 66 | 27 | 81 | N#C/C(=C1/Nc2ccccc2S1)c1ccnc(NCCc2cccnc2)n1
12 | 60 | 81 | – | 98 | 100 | 63 | 16 | 26 | – | – | 1.4 | 21 | 21 | 100 | 54 | 90 | 36 | 24 | 96 | COc1cc2ncn(-c3cc(OCc4ccccc4C(F)(F)F)c(C(N)=O)s3)c2cc1OC
